Biological target: T1, fibrin gels (10 mg/mL fibrinogen, 1 U/mL thrombin) (Homo sapiens, UniProt P02671+P02675+P02679)
T1 construct: purchased Ethicon (Evicel)
T1 sequence (P02671 20-644 isoform P02671-2 limits assumed): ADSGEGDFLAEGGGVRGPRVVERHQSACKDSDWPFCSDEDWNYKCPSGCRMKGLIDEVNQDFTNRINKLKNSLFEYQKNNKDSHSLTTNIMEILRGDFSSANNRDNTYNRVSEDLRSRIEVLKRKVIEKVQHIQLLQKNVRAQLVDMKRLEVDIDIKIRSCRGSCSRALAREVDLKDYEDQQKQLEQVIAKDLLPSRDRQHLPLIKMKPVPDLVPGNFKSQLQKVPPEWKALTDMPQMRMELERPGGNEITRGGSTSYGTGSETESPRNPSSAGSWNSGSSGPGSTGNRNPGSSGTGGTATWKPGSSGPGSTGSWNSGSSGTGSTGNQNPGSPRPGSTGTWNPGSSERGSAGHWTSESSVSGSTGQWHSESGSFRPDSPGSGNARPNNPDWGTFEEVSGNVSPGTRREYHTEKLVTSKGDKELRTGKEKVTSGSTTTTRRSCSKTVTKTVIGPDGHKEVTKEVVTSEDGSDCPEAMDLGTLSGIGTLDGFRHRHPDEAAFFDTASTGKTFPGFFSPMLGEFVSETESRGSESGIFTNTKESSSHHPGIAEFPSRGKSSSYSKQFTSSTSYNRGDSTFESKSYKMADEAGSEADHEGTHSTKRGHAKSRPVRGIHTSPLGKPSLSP
T1 sequence (P02675 45-491 limits assumed): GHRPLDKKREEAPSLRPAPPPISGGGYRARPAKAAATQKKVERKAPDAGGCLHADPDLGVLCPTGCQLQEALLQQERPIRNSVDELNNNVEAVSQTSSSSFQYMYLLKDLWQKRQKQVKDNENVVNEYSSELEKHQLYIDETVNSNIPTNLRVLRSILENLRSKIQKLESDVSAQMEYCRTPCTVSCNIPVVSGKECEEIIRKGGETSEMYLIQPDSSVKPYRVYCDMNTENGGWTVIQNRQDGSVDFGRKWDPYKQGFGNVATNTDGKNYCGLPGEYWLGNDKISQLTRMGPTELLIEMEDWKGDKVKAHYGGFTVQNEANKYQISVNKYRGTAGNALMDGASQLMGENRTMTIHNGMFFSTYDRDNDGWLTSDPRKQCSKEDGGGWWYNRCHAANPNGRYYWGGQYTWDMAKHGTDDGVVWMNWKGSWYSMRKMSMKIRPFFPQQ
T1 sequence (P02679 27-437 isoform P02679-2 limits assumed): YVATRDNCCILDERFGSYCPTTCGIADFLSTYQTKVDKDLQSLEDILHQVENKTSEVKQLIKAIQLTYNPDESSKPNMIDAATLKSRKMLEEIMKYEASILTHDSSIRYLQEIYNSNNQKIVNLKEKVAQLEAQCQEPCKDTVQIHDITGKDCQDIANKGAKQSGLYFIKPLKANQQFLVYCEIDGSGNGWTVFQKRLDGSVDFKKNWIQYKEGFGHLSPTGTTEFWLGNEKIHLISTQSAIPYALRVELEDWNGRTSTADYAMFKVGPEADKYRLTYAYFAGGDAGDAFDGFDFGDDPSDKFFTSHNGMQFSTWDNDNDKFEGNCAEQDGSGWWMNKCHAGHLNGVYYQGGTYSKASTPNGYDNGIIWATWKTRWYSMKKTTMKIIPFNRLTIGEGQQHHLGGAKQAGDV
Assay: Rheometry gelation time, lower fibrinogen concentration fibrin gels
Format: biochemical
Details: n=3
Method: The viscoelastic mechanical properties of fibrin gels were characterized using oscillatory shear rheology on a Discovery Hybrid Rheometer 2 (TA Instruments; New Castle, DE) with a 20 mm cone-and-plate geometry at a 1° angle and a 20 mm stage. Inertia, friction, and rotational mapping calibrations were performed prior to each experiment. A Peltier temperature-controlled stage maintained 37° C. and a solvent trap was used to control evaporation during experiments lasting longer than 20 minutes. Gels were prepared by mixing specified concentrations of fibrinogen, dye, and thrombin on the stage. Immediately after combining, the geometry head was lowered to 500 μm (˜1-3 seconds) before beginning the first experiment. Gelation kinetics were monitored in time sweeps at 1% strain and 10 rad/s angular frequency. Strain sweeps were measured from 0.01-1000% strain at 1 Hz frequency. A frequency sweeps measured from 0.01-3 Hz at 1% strain was used to confirmed fibrin independence of frequency.
Rheometry was performed for samples with no dye (PBS alone), TB, EB, and PEG. Stock fibrinogen (Evicel) was used as is or diluted with PBS. Thrombin was diluted in PBS, with or without the various dyes. To determine the gelation time, a final mixture concentration of 10 mg/mL fibrinogen, 1 U/mL thrombin, and 0.01% w/v dye concentration was used. A time sweep was performed up to 20 minutes, after which some minor effects of evaporation in non-gelled samples introduced noise and could not reliably detect the storage modulus (g′). The gelation time was defined as the point at which the g′ exceeded the g″ (viscous modulus) and continued to increase over time.
Rheometry was used to confirm findings obtained using the coagulation analyzer and test conditions at higher fibrinogen concentrations used in high mechanical strength scaffolds. While clotting time and gelation time are similar properties, the terms are utilized discretely due to the differences in the respective assays. However, in controls for gels at higher fibrinogen concentrations, thrombin concentrations were decrease by orders of magnitude to assess initial gel time based on the sensitivity of the rheometer. In order to consistently detect a gelation time, when the g′ value (shear modulus) becomes greater than the g″ value (viscous modulus), conditions were set to […] fibrinogen and 1 U/mL thrombin final concentration using tissue glue for all samples. Sample conditions tested using rheometry included use of PBS (control), TB, EB, or PEG solution to dilute the thrombin so that the final gel concentration of the dye was 0.01% w/v. […]
Initially, g′ and g″ values were on the same scale (<2 Pa). […] Due to this, the gelation time was calculated as when the g′ values exceeded the g″ value and continued to grow over time (arrow, FIG. 5A). […]

| Compound | gelation time (g′ exceeds g″) (0.01% w/v dye) | gelation time (g′ exceeds g″) (0.005% w/v dye) | gelation time (g′ exceeds g″) (0.12% w/v dye) |
| --- | --- | --- | --- |
| Cc1cc(-c2ccc(/N=N/c3ccc4c(S(=O)(=O)O)cc(S(=O)(=O)O)c(N)c4c3O)c(C)c2)ccc1/N=N/c1ccc2c(S(=O)(=O)O)cc(S(=O)(=O)O)c(N)c2c1O [EB, Evans Blue] | 232.1 ± 19.3 s | – | – |
| Cc1cc(-c2ccc(/N=N/c3c(S(=O)(=O)O)cc4cc(S(=O)(=O)O)cc(N)c4c3O)c(C)c2)ccc1/N=N/c1c(S(=O)(=O)O)cc2cc(S(=O)(=O)O)cc(N)c2c1O [TB, Trypan Blue] | 168.7 ± 19.9 s | 106.4 ± 22.5 s | 206.7 ± 31.3 s |
